The target of this test is T1, IP receptor (Homo sapiens, UniProt P43119).
T1 construct: expressed in transfected cells; host or cells: CHO cells stably expressing the IP receptor (CHO-IP)
T1 sequence (P43119 whole entry): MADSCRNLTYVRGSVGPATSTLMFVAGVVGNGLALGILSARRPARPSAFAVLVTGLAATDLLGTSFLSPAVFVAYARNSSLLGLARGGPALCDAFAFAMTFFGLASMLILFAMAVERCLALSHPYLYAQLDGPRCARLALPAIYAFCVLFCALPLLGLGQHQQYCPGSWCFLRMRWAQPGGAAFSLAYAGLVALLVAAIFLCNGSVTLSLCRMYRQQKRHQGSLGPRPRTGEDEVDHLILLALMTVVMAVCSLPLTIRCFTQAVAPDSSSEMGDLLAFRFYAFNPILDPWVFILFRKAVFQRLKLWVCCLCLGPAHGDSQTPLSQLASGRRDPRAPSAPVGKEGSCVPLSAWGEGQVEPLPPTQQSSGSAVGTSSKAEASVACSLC
The experiment in a line: cAMP accumulation in CHO cells stably expressing the IP receptor (CHO-IP), PerkinElmer AlphaScreen assay. It counts as cell-based. The note with it: 1 hour at room temperature, 4-parameter logistic fit. As for the experimental part: Activity of compounds at the IP receptor (IP receptor) is assessed by measuring cAMP accumulation in CHO cells stably expressing the IP receptor (CHO-IP) using the PerkinElmer AlphaScreen assay. This technology measures the endogenous production of cAMP, in a non-radioactive luminescence proximity homogenous assay. A biological reaction occurs between streptavidin coated donor beads, biotinylated cAMP and anti-cAMP acceptor beads, bringing the donor and acceptor beads close enough together so that upon excitation a fluorescence signal is produced. On production of endogenous cAMP, competition between the biotinylated cAMP and cellular-derived cAMP causes a reduction in the fluorescent signal. The reduction in signal is proportional to the amount of cAMP being produced, thus it is possible to quantify the amount of cAMP being produced on stimulation with agonist.
Test and reference compounds are prepared at 100×[final] in 100% DMSO, and diluted 1:3 using a Biomek Fx (Beckman Coulter). This is followed by an intermediate dilution to give 5×[final] in assay buffer (HBSS containing 5 mM HEPES, 0.1% (w/v) BSA). 5 μL of 5×[final] test compounds, reference compounds and buffer/DMSO control are then transferred to a 384-well white OptiPlate, containing 20 μL CHO-IP cell suspension (15,000 cells/well, prepared from frozen), and plate is incubated at room temperature for 1 hour. A cAMP standard curve is constructed for each experiment (concentration range of 10000 nM to 0.001 nM, in assay buffer) and 25 μL of each concentration added to the last two columns of the assay plate. The incubation is terminated by the addition of lysis buffer (dH2O; 0.3% (v v^−1) Tween-20) containing 20 units mL^−1 streptavidin coated donor beads and biotinylated cAMP (pre-incubated for 30 minutes) and 20 units mL^−1 anti-cAMP acceptor beads, which are added to the lysis buffer just before addition to the assay plate. The assay plate is then incubated at room temperature in the dark, for 60 minutes with gentle shaking, and read on the Envision plate reader (Perkin Elmer).
The raw data of the reference compounds, test compounds and controls are converted into cAMP concentrations, using the cAMP standard curve, in GraphPadPrism (GraphPad Software Inc). EC50 as well as maximal values of the agonist curves are determined using a 4-parameter logistic equation. The % maximum response values of all test compounds are determined using the top of the treprostinil concentration-response curve.
On the technique in general: cAMP levels reflect the balance of adenylyl cyclase and phosphodiesterase activity.
The term EC50 denotes the concentration giving half of the maximal effect. `Cc1ccc(-c2nc3c(nc2-c2ccc(C)cc2)N(CCCCCc2nnn[nH]2)CC(O)C3)cc1` (racemic) [Example 4, rac-5-(5-(1H-Tetrazol-5-yl)pentyl)-2,3-di-p-tolyl-5,6,7,8-tetrahydropyrido[3,2-b]pyrazin-7-ol]: the EC50 is 5.63 nM. This counts as single-digit nanomolar.
To `Cc1ccc(-c2nc3c(nc2-c2ccc(C)cc2)N(CCCCCc2nnn[nH]2)CC(O)C3)cc1` (single isomer, unassigned) [Example 4b, (R)- or (S)-5-(5-(1H-Tetrazol-5-yl)pentyl)-2,3-di-p-tolyl-5,6,7,8-tetrahydropyrido[2,3-b]pyrazin-7-ol]] belongs 0.86 nM.
With `Cc1ccc(-c2nc3c(nc2-c2ccc(C)cc2)N(CCCCCCc2nnn[nH]2)CC(O)C3)cc1` (racemic) [Example 3, rac-5-(6-(1H-Tetrazol-5-yl)hexyl)-2,3-di-p-tolyl-5,6,7,8-tetrahydropyrido[2,3-b]pyrazin-7-ol] the figure was 0.04 nM; with `Cc1ccc(-c2nc3c(nc2-c2ccc(C)cc2)N(CCCCCc2nnn[nH]2)CC(O)C3)cc1` (single isomer, unassigned) [Example 4a, (R)- or (S)-5-(5-(1H-Tetrazol-5-yl)pentyl)-2,3-di-p-tolyl-5,6,7,8-tetrahydropyrido[2,3-b]pyrazin-7-ol]], 0.62 nM; with `Cc1ccc(-c2nc3c(nc2-c2ccc(C)cc2)N(CCCCCc2nnn[nH]2)CCC3)cc1` [Example 2, 5-(5-(1H-tetrazol-5-yl)pentyl)-2,3-di-p-tolyl-5,6,7,8-tetrahydropyrido[2,3-b]pyrazine], 0.07 nM.
With `Cc1ccc(-c2nc3c(nc2-c2ccc(C)cc2)N(CCCCCCc2nnn[nH]2)CC(O)C3)cc1` (single isomer, unassigned) [Example 3b, (R)- or (S)-5-(6-(1H-tetrazol-5-yl)hexyl)-2,3-di-p-tolyl-5,6,7,8-tetrahydropyrido[2,3-b]pyrazin-7-ol]] the figure was 1.71 nM; with `Cc1ccc(-c2nc3c(nc2-c2ccc(C)cc2)N(CCCCCCc2nnn[nH]2)CCC3)cc1` [Example 1, 5-(6-(1H-Tetrazol-5-yl)hexyl)-2,3-di-p-tolyl-5,6,7,8-tetrahydropyrido[2,3-b]pyrazine], 0.11 nM; with `Cc1ccc(-c2nc3c(nc2-c2ccc(C)cc2)N(CCCCCCc2nnn[nH]2)CC(O)C3)cc1` (single isomer, unassigned) [Example 3a, (R)- or (S)-5-(6-(1H-tetrazol-5-yl)hexyl)-2,3-di-p-tolyl-5,6,7,8-tetrahydropyrido[2,3-b]pyrazin-7-ol]], 2.06 nM.

For the origin of these results see patent US20150005311A1, “IP receptor agonist heterocyclic compounds” (NOVARTIS AG, priority 2012, published 2015).
